# Measured values taken from patent US7371780B2, “Use of calphostin C to treat drug-resistant tumor cells” (priority 2003, dated 2008).
# Columns and labels:
# Assay type in all cases: cell-based, human
# MCF-7TAX cells = test: Cytoplasmic shrinkage by hematoxylin/eosin staining, MCF-7TAX
# Experimental: For staining with hematoxylin and eosin, cells were grown in a six-well culture plate with each well containing a Snowcoat X-Tra™ microscope slide (Surgipath Laboratories, MB) immersed in 3 ml of H21 medium. When the cells reached 50% confluence, they were treated with 0-300 nM calphostin C, followed by a 2 hour exposure of the cultures to fluorescent light as described above. After light activation, the cells were placed in a 37° C. humidified incubator with 5% CO2 and incubated for an additional 22 hours. The cells were then stained with hematoxylin and eosin using a previously described procedure. Briefly, the media was removed from cell cultures and the cells that remained adhered to the slides were washed with PBS, fixed in formalin:acetone (1:2) for 2 min, and allowed to air dry for 10 min. After washing with distilled water, 250 μl of hematoxylin solution (BDH Chemicals, Toronto, ON) was placed on each slide and allowed to incubate with the cells for 5 min. The slides were then washed with distilled water, Scott's tap water (20 g MgSO4.7H2O, 1.5 g NaHCO3 in 1 L H2O), and a final wash with distilled water. The cells on the slides were then stained for 5 min in 250 μl of eosin solution (100 ml of 1% eosin, 10 ml of 1% phyloxine, 4 ml of glacial acetic acid, and 780 ml of 95% ethanol). The cells were then dehydrated by washing three times in 95% ethanol and twice in 100% ethanol. The small slide was then mounted on a standard microscope glass slide, and 10 randomly selected fields were viewed at 100× magnification and photographed. For each concentration of calphostin C, the total number of dead cells in each field was ascertained and expressed relative to the total number of cells in the field.
# [1] = tested on: caspase-8, PARP and cytochrome C in MCF-7 cells; test: Immunoblotting of apoptosis markers, MCF-7
# Experimental: (§1) For preparation of mitochondrial and cytoplasmic cellular fractions, MCF-7, MCF-7TAX, and MCF-7DOX cells were grown in a monolayer to 70-90% confluence on 10 cm tissue culture plates. Twenty-four hours prior to extraction, the cells were treated with 50 nM light-activated calphostin C as described above. After this treatment, the cells were trypsinized, centrifuged at 1000 rpm in a Beckman GP centrifuge and washed with PBS. To the resulting cell pellet, 1 ml of ice-cold homogenization (HM) buffer was added. This buffer consisted of 85.55 g sucrose, 1.406 g MOPS, 0.292 g EDTA, and 1 ml ethanol per liter of solution, with a final pH of 7.2. Prior to use, 0.2 ml of 0.1 M PMSF, 1 Complete™ protease inhibitor tablet (Roche Diagnostics, Laval, QC), and 20 μl of 1 M DTT was added for 100 ml of HM buffer. Cells were then lysed 10 times by homogenization in a 2 ml dounce homogenizer. Nuclei in the lysate were then pelleted by centrifugation in a microfuge tube at 70 g for 10 minutes at 4° C. and the supernatant carefully removed. The supernatant was clarified by centrifugation at 1950 g for 10 minutes at 4° C. and the pellet (containing mitochondria) was resuspended in 50 μl of HM buffer. The remaining clarified supernatant was deemed the cytoplasmic fraction. […]
# [2] = tested on: caspase-8, PARP and cytochrome C in MCF-7DOX cells; test: Immunoblotting of apoptosis markers, MCF-7DOX
# Experimental: as §1
# [3] = light-activated calphostin C, whole cell extracts
# [4] = mitochondrial and cytoplasmic fractions
smiles,measurement,setting,value
COc1c(C[C@@H](C)OC(=O)Oc2ccc(O)cc2)c2c3c(C[C@@H](C)OC(=O)c4ccccc4)c(OC)c(=O)c4c(O)cc(OC)c(c5c(OC)cc(O)c(c1=O)c52)c43 [calphostin C],concentration required for complete cytoplasmic shrinkage,MCF-7TAX cells,300 nM
same,percentage of cells exhibiting cytoplasmic shrinkage,MCF-7TAX cells; 25 nM calphostin C,remained unchanged
same,percentage of cells exhibiting cytoplasmic shrinkage,MCF-7TAX cells; 50 nM calphostin C,23%
same,caspase-8 and PARP cleavage (protein levels),[1]; [3],did not result in any change
same,release of cytochrome C from mitochondria,[1]; [4],no clear evidence for the release of cytochrome C
same,caspase-8 and PARP cleavage (protein levels),[2]; [3],did not result in any change
same,release of cytochrome C from mitochondria,[2]; [4],no clear evidence for the release of cytochrome C
